# Patent US20240343666A1, “PERINAPHTHENONE COMPOUND AND USE THEREOF” (INSTITUTE OF MEDICINAL BIOTECHNOLOGY, CHINESE ACADEMY OF …, priority 2021, published 2024)
# Read-outs that look alike come from different tables or passages of the source.
# Columns and labels:
# [1] = system: influenza A virus (IAV) A/WSN/33 (H1N1); assay: microbe, parasite or virus in culture; format: cell-based; conditions: read-out: Anti-influenza activity EC50
# [2] = target: influenza virus PA protein (UniProt P15659); format: cell-based; conditions: read-out: PA remaining EC50
# TRIM25 = TRIM25 (Homo sapiens, UniProt Q14258); assay: Biolayer interferometry (BLI) binding to TRIM25; conditions: in vitro
# Source text: (§1) To further investigate the mechanism of degradation of PA protein by compound C1, the inventors tested the binding ability of the compound to TRIM25 protein and PA protein using biolayer interferometry (BLI). […] Meanwhile, the compounds also have the ability of binding PA in vitro.
# [3] = Cell viability assay (CCK-8); format: cell-based; conditions: human; 293T-Gluc cells, CCK-8, 48 h
# Source text: CCK-8 (Cell Counting Kit-8) kit is a rapid and highly sensitive detection kit based on WST-8 (water-soluble tetrazolium salt, chemical name: 2-(2-methyloxy-4-nitrophenyl)-3-(4-nitrophenyl)-5-(2,4-disulfophenyl)-2H-tetrazole monosodium salt) and widely applied to cell proliferation and cytotoxicity. WST-8 is a compound similar to MTT, and can be reduced by some dehydrogenases in mitochondria to produce orange-yellow formazan in the presence of an electron coupling reagent. The more and faster the cell proliferation, the darker the color; and the greater the cytotoxicity, the lighter the color. For the same cells, there is a linear relationship between the depth of color and the number of cells. The number of living cells can be indirectly reflected by measuring the light absorption value via an enzyme-linked immunosorbent assay instrument at a wavelength of 450 nm. 293T-Gluc cells were inoculated in a 96-well plate at 2.5×10^4 cells per well, and incubated in 100 μL of DMEM culture medium containing 10% FBS. 24 h after cell plating, 1 μL of the gradiently diluted test compound was added per well (the test compound was dissolved in DMSO and diluted with DMSO). Meanwhile, a blank control (only 100 μL of DMEM culture medium was added), a positive control (1 μL Ribavirin was added), and a negative control (1 μL DMSO was added) were set, and incubated at 37° C. for 48 h. The 96-well plate was taken out, and 10 μL of CCK-8 was added to each well. […] The experiment was repeated three times.
# PA protein [4] = target: T1, PA protein (Influenza A virus, UniProt P15659); assay: Biolayer interferometry (BLI) binding to PA; conditions: in vitro
# Source text: as §1
# PA protein [5] = target: T1, PA protein; assay: Ubiquitination of PA protein in HEK293T cells (immunoprecipitation, Western Blotting); format: cell-based
# TRIM25 with PA protein = TRIM25 with PA protein (UniProt P15659+Q14258); assay: Interaction of TRIM25 with PA in HEK293T cells (co-immunoprecipitation); format: cell-based
# PA protein [6] = target: T1, PA protein; format: cell-based
# PA protein [7] = target: T1, PA protein; assay: In vitro ubiquitination test; format: biochemical
# Chain of TRIM25 (Q14258 whole entry, species assumed): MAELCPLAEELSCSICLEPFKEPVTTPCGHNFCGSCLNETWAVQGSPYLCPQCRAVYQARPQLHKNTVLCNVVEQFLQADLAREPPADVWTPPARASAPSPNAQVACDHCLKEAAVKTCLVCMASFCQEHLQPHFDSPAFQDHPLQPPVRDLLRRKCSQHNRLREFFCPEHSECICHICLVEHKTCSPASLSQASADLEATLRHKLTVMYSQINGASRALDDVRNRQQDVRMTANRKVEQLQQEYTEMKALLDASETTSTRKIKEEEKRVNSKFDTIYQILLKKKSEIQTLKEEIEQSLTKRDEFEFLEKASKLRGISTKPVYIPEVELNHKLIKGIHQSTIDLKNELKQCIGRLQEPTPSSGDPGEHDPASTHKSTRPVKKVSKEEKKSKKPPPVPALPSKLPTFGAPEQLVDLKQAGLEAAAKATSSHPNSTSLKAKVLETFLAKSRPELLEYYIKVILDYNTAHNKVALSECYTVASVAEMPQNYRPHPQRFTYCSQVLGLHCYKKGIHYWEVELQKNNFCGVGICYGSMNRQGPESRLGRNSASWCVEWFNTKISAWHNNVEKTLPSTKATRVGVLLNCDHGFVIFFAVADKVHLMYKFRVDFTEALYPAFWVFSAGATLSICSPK
Structure (SMILES),"EC50 ([1]; Influenza A virus, 24 h) [µM]",EC50 [1] [µM],DC50 [2] [µM],Kd (TRIM25) [µM],CC50 at 48 h [3] [µM],Kd (PA protein [4]) [µM],Polyubiquitination level of PA protein in cells (PA protein [5]),Interaction of TRIM25 with PA protein (TRIM25 with PA protein),Expression level of PA protein after treatment with proteasome inhibitor MG-132 (PA protein [6]),Restoration of PA protein after treatment with lysosome inhibitor ConA (PA protein [6]),Polyubiquitination level of PA protein in vitro (PA protein [7])
C/C(=C\CC/C(C)=C/C[C@]1(O)C(=O)c2c(O)cc(C)c3c(O)c(C)c(O)c(c23)C1=O)CC/C=C(\CCC1OC(C)(C)OC1(C)C)C(=O)O (some centres unmarked) [Compound C8],0.45 to 2.22,0.55 ± 0.03,0.8 ± 0.12,12 to 43,> 100,,,,,,
C/C(=C\CC/C(C)=C/C[C@]1(O)C(=O)c2c(O)cc(C)c3c(O)c(C)c(O)c(c23)C1=O)CC/C=C1/CCC(C(C)(C)O)OC1 (some centres unmarked) [Compound C13],0.45 to 2.22,0.65 ± 0.01,0.71 ± 0.02,12 to 43,> 100,,,,,,
"NC(=O)c1ncn([C@@H]2O[C@H](CO)[C@@H](O)[C@H]2O)n1 [Ribavirin, reference compound]",27.9 ± 0.65,,,,> 100,,,,,,
CC(C)=CC1C/C(=C/CC/C(C)=C/CC/C(C)=C/C[C@]2(O)C(=O)c3c(O)cc(C)c4c(O)c(C)c(O)c(c34)C2=O)CO1 (some centres unmarked) [Compound C4],,1.25 ± 0.01,1.15 ± 0.17,12 to 43,> 100,,,,,,
CC(C)=CCC/C(C=O)=C\CC/C(C)=C/CC/C(C)=C/C[C@]1(O)C(=O)c2c(O)cc(C)c3c(O)c(C)c(O)c(c23)C1=O [Compound C3],,1.42 ± 0.02,1.14 ± 0.26,12 to 43,> 100,,,,,,
C/C(=C\CC/C(C)=C/C[C@]1(O)C(=O)c2c(O)cc(C)c3c(O)c(C)c(O)c(c23)C1=O)CC/C=C(\CO)CCC1OC(C)(C)OC1(C)C (some centres unmarked) [Compound C7],0.45 to 2.22,0.78 ± 0.02,1.05 ± 0.19,12 to 43,> 100,,,,,,
CC(C)=CCC/C(=C/CC/C(C)=C/CC/C(C)=C/C[C@]1(O)C(=O)c2c(O)cc(C)c3c(O)c(C)c(O)c(c23)C1=O)C(=O)O [Compound C12],,0.92 ± 0.02,1.07 ± 0.1,12 to 43,> 100,,,,,,
C/C(=C\CC/C(C)=C/C[C@]1(O)C(=O)c2c(O)cc(C)c3c(O)c(C)c(O)c(c23)C1=O)C/C=C/C1(C)CCC(C(C)(C)O)O1 (some centres unmarked) [Compound C14],,1.06 ± 0.09,1.02 ± 0.03,12 to 43,> 100,,,,,,
C/C(=C\C[C@]1(O)C(=O)c2c(O)cc(C)c3c(O)c(C)c(O)c(c23)C1=O)CC/C=C(\C)CCC(O)[C@@]1(C)CC[C@@H](C(C)(C)O)O1 (some centres unmarked) [Compound C9],,1.02 ± 0.05,1.04 ± 0.08,12 to 43,> 100,,,,,,
CC(C)=CCC/C(=C/CC/C(C)=C/CC/C(C)=C/C[C@]1(O)C(=O)c2c(O)cc(C)c3c(O)c(C)c(O)c(c23)C1=O)CO [Compound C2],0.45 to 2.22,0.58 ± 0.06,0.65 ± 0.12,12 to 43,> 100,58,,,,,
C/C(=C\CC/C(C)=C/C[C@]1(O)C(=O)c2c(O)cc(C)c3c(O)c(C)c(O)c(c23)C1=O)CC/C=C(\CO)CC[C@@H](O)C(C)(C)O [Compound C1],0.45 to 2.22,0.45 ± 0.04,0.44 ± 0.09,12 to 43,> 100,11,can promote the polyubiquitination level of PA protein,can promote the interaction of TRIM25 with PA protein,almost completely restored,hardly affected,can promote the polyubiquitination level of PA protein in vitro
C/C(=C\C[C@]1(O)C(=O)c2c(O)cc(C)c3c(O)c(C)c(O)c(c23)C1=O)CC/C=C(\C)CCC(O)[C@@]1(C)CC[C@H](C(C)(C)O)O1 (relative stereo) [Compound C10],,1.22 ± 0.01,0.88 ± 0.08,12 to 43,> 100,,,,,,
CC(=O)OC(C=C(C)C)C/C(C)=C/CC/C(C)=C/CC/C(C)=C/C[C@]1(O)C(=O)c2c(O)cc(C)c3c(O)c(C)c(O)c(c23)C1=O (some centres unmarked) [Compound C5],0.45 to 2.22,0.57 ± 0.08,0.73 ± 0.23,12 to 43,> 100,,,,,,
C/C(=C\CC/C(C)=C/C[C@]1(O)C(=O)c2c(O)cc(C)c3c(O)cc(O)c(c23)C1=O)CC/C=C(\CO)CC[C@@H](O)C(C)(C)O [Compound C11],,0.91 ± 0.08,0.62 ± 0.15,12 to 43,> 100,,,,,,
C/C(=C\CC/C(C)=C/C[C@]1(O)C(=O)c2c(O)cc(C)c3c(O)c(C)c(O)c(c23)C1=O)CC/C=C(\C)CC[C@@H](O)C(C)(C)O [Compound C6],,2.22 ± 0.04,2.09 ± 0.52,12 to 43,> 100,,,,,,
